Measured values: US10166292B2, “Blocking IL-9 signaling in conjunction with chemotherapy to treat cancer” (Mayo Foundation for Medical Education and Research, priority 2014, dated 2019)

B1: recombinant IL-9: Recombinant IL-9 cytokine added to IL-9ko mice in the 4T1 lung metastasis model (protein, UniProt P15247 19-144, looked up)
Interleukin-9: QRCSTTWGIRDTNYLIENLKDDPPSKCSCSGNVTSCLCLSVPTDDCTTPCYREGLLQLTNATQKSRLLPVFHRVKRIVEVLKNITCPSFSCEKPCNQTMAGNTLSFLKSLLGTFQKTEMQRQKSRP

Columns and labels:
CD4^+ T cells = assay: IFNγ ELISpot assay of enriched T cells; format: cell-based, mice; conditions: CD4^+ T cells plus tumor cell lines, no syngeneic antigen-presenting cells; positive control
Procedure: 1×10^5 4T1 splenocytes were co cultured with either 5×10^4 4T1 or TUBO cells. 5×10^4 4T1 lymphocytes were co cultured with either 2.5×10^4 4T1 or TUBO cells, following the manufacturers' instructions. CD4^+ and CD8^+ T cells were enriched from the spleens of naïve and 4T1-bearing WT and IL-9ko mice using a negative isolation kit (Invitrogen, Carlsbad Calif.). 1×10^5 T cells were co-cultured with 2.5×10^4 4T1 cells or with BM185, a non-specific control tumor line for 40 hours. Each experimental condition was executed in biological triplicates, which in turn comprised triplicate wells. Manufacturer's instructions were followed to reveal INFγ positive spots using the interferon gamma ELISpot kit from Mabtech (cat #3321-2HW-Plus). The plates were imaged and evaluated by ZellNet Consulting, Inc. (Fort Lee N.J.), and result expressed as average of triplicate spots per condition. Phorbol 12-myristate 13-acetate (PMA) was used as a positive control of cell activation.
These cells were co-cultured with 4T1 or BM185 cells, a BALB/c background murine leukemia cell line used here as a negative control (FIG. 4C). […]

4T1 cells = assay: Experimental metastasis model, tail vein injection of 4T1 cells, foci in the lung; format: in vivo; conditions: IL-9ko mice, 1×10^5 4T1 cells tail vein; IL-9ko without IL-9: 3, WT: 87; p=0.043
From the text: Since few IL-9ko mice that developed 4T1 tumors never had evidence of macro metastases in the lungs, an experimental metastasis model was used to verify whether IL-9 plays a role in 4T1 seeding in the lung. […] Addition of recombinant IL-9 led to enhanced 4T1 seeding in the lungs of IL-9ko mice (an average of 13 foci per lung) (p=0.043, FIGS. 7A and 7B).

Molecule	IFNγ^+ spots (CD4^+ T cells)	average foci per lung (4T1 cells) [foci per lung]
CCCCCCCCCCCCCC(=O)O[C@@H]1[C@@H](C)[C@@]2(O)[C@@H](C=C(CO)C[C@]3(O)C(=O)C(C)=C[C@@H]23)[C@@H]2C(C)(C)[C@]12OC(C)=O [PMA, Phorbol 12-myristate 13-acetate]	produced IFNγ^+ spots only if exposed to PMA	–
B1	–	13
